From US20050266096A1, “New synergetic compositions of vitamins, minerals and trace-elements to stimulate the elimination of intra-cellular lipid deposits” (priority 2004, published 2005) come the findings set out here.

The first test deals with vascular smooth muscle cells. Description: Reduction of intracellular lipid deposits in lipid-loaded cell cultures. The following applies: individual element; concentration per row in μg/ml (0.016% RDA); 3 days after exposure; vs untreated control cultures = 100% lipid deposits; n = 24. Format: cell-based. Here is the method:
To evaluate the effects of vitamins, minerals & trace-elements on the cellular capacity to eliminate intracellular lipid deposits, the cultures of vascular smooth muscle cells were prepared on plastic cover slips in vitro as described by Shrivastava at al (Meth Expt Find,1994).
A 50-60% cell monolayer was obtained within 4 days of culture. The hyperlipidemic rabbit serum was added to the culture medium, cells were incubated at 37° C.-5% CO2 for 48 h and the presence of intracellular cytoplasmic lipid deposit was quantified (considered 100% lipid deposits) . The culture medium was then replaced by a predefined blank medium containing no vitamins, minerals & trace-elements containing 1% fetal calf serum. Desired concentrations of vitamins, minerals and trace-elements were prepared in the predefined control culture medium by dissolving the test substances in the medium and by replacing the culture medium by the test product containing medium.
The in vitro cytoxicity of each vitamin, mineral and trace-element was determined. […]
The results were expressed a mean percentage decrease in intracellular lipid deposits compared to the untreated control cultures considered as containing 100% lipid deposits.
For `[I-].[K+]` [Iodine, potassium iodide], the “Percent decrease in intracellular lipids” value stood at 0.0%. For the compound `[O]=[Mg]` [Magnesium, magnesium oxide], the “Percent decrease in intracellular lipids” value was 22.0 ± 5.2%. In the case of `[Cl-].[K+]` [Potassium, potassium chloride], the “Percent decrease in intracellular lipids” value turned out to be 0.0%. Regarding `[O-2].[Zn+2]` [Zinc, zinc oxide], the “Percent decrease in intracellular lipids” value came to 16.3 ± 4.4%. Consider calcium gluconate, for which the “Percent decrease in intracellular lipids” value is reported as 0.0%. Consider iron gluconate, for which the “Percent decrease in intracellular lipids” value is on record as 6.3 ± 2.7%.

The same test, now with this note: tables 1-3.
On to `[O]=[Mg]` [Magnesium, magnesium oxide], for which the “effect on the reduction/elimination of intracellular lipid deposits (in words)” value (“effect on the reduction/elimination” for short) is “minor effect”. Same read-out and setting: to `CC1=C(/C=C/C(C)=C/C=C/C(C)=C/C=C/C=C(C)/C=C/C=C(C)/C=C/C2=C(C)CCCC2(C)C)C(C)(C)CCC1` [Vitamin A, beta carotene] belongs “minor effect”; to `Cc1cc2nc3c(=O)[nH]c(=O)nc-3n(C[C@H](O)[C@H](O)[C@H](O)CO)c2cc1C` [Vitamin B2, riboflavin], “minor effect”; to `Nc1nc2ncc(CNc3ccc(C(=O)N[C@@H](CCC(=O)O)C(=O)O)cc3)nc2c(=O)[nH]1` [Vitamin B9, folic acid], “minor effect”. Consider `CC(=O)Oc1c(C)c(C)c2c(c1C)CCC(C)(CCC[C@H](C)CCC[C@H](C)CCCC(C)C)O2` (stereo partly drawn) [Vitamin E, tocopherol acetate], for which the “effect on the reduction/elimination” value is given as “minor effect”. Take `[O-2].[Zn+2]` [Zinc, zinc oxide]: the “effect on the reduction/elimination” value is recorded as “minor effect”.
